The results in this text go back to publication PMC11477209, “Toxicological Evaluation of Kaempferol and Linearolactone as Treatments for Amoebic Liver Abscess Development in Mesocricetus auratus” (International Journal of Molecular Sciences, 2024).

In brackets after ≈: the same amount, converted by molar mass.

The subject of data set [1] is BEAS-2B cells. Put plainly: MTT cytotoxicity assay. In kind it is cell-based, human. The note with it: 24 h. In general terms: Formazan colour is commonly taken as a measure of viable cells.
Data set [2] has as its system E. histolytica trophozoites. Kind of data set: Cell morphology by confocal microscopy (actin). To be noted: phalloidin-rhodamine, treatment with IC50. It counts as cell-based, Entamoeba histolytica. As to the method:
Then, the culture medium was removed, and the adhered cells were fixed with 4% paraformaldehyde for 1 h at 37 °C. The samples were washed three times with 1× PBS and incubated with 1:50 phalloidin–rhodamine (R415, Invitrogen; Carlsbad, CA, USA) for 1 h at 37 °C. Finally, the cells were washed, mounted with VectaShield/DAPI medium (Vector Laboratories; Newark, CA, USA), and observed with a confocal microscope (LSM-700, Zeiss; Oberkochen, Germany).

Data set [3] deals with E. histolytica trophozoites (amoebic liver abscess). Kind of data set: Amoebic liver abscess (ALA) model, antiparasitic protocol. In kind it is in vivo, Mesocricetus auratus. An excerpt: M. auratus was used as an animal model because the hamster is naturally susceptible to infection by E. histolytica and can develop amoebic colitis or extraintestinal complications such as an ALA [71]. In this context, the hamster can be used to search for new alternative therapeutic agents against amoebiasis. The hamsters were acquired from Charles River Laboratories Inc. (Wilmington, MA, USA) in 2017 by Centro de Investigación y de Estudios Avanzados del Instituto Politécnico Nacional ([…]-IPN). […] Male hamsters (sexually mature and homozygous) weighing 95 ± 5 g and ≈10 weeks old were selected for the experiments. They were maintained in aseptic conditions at 25 ± 1 °C, 50 ± 3% humidity, a 12 h photoperiod, and ad libitum access to a standard diet (LabDiet; Richmond, IN, USA) and water (Figure 5A). The hamsters were housed in polycarbonate boxes (five per box), with an American Iron and Steel Institute (AISI) lid and wood shavings as bedding, in a controlled room of the Animal Production and Experimentation Unit (UPEAL) from […]-IPN (Figure 5A). Additionally, the health state of the hamsters and their adaptation to the new laboratory conditions were evaluated for 15 days to decrease their stress and anxiety levels. This study was carried out according to the Official Mexican Regulations (NOM-062-ZOO-1999) and NC3Rs ARRIVE [60, 72]. The protocol was approved by the Institutional Animal Care and Use Committee (Reg. No. 0183-16). Finally, the hamsters were not subjected to any previous experimental procedure or any additional treatment before beginning the experimental procedures (see File S1, NC3Rs ARRIVE Guidelines Checklist). Compounds that are prohibited and/or not recommended for use in animals by the American Veterinary Medical Association (Guidelines for the Euthanasia of Animals) were not used.
These experiments were performed with three independent biological replicates. For each replicate, twenty-five hamsters were randomly distributed (simple type) into five experimental groups (five animals per group). The sample size was determined based on the Organization for Economic Cooperation and Development (OECD) recommendations that establish the minimum number of individuals required for the tests so as not to sacrifice animals unnecessarily. Laparotomy was performed in aseptic conditions by using depilation, iodine solution, as well as sterile field cloths. Subsequently, an intra-hepatic puncture was made to deliver 1.5 × 10^6 virulent E. histolytica trophozoites in 100 μL of 1× PBS into the left hepatic lobe for ALA induction (Figure 5A-3). The injection site was immediately covered by applying a gel foam pad to maintain hemostasis. The abdominal layers were sutured discontinuously by single vertical stitches using Vicryl synthetic absorbable suture with a triangular pointed half circle needle. Irregular edges or folds in the surgical wound were eliminated to avoid tissue devitalization or possible infections. The development of a hepatic ALA was monitored for 4 days (Figure 5A-4).
(Figure 5B). The compounds were administered by the i.p. route because the peritoneal cavity presents rapid fluid absorption into the bloodstream, and initial biotransformation by the gastrointestinal tract is avoided. […] The hamsters were evaluated 24 h post-treatment to detect any signs of discomfort/pain or toxicity. The humane endpoint criteria used in this study were >20% body weight loss overnight, cachexia, recumbence, lethargy, respiratory distress, inability to reach food and water, lack of grooming, and ulceration around the surgical site, among others. Additionally, the weight of hamsters was determined at the beginning and end of the experiment with an electronic bascule (CS200, Ohaus; Parsippany, NJ, USA), and the ALA volume was calculated based on imaging (Figure 5B-1). […]

The conditions of data set [4]: ALA hamsters.

For `C[C@]12C[C@H](c3ccoc3)OC(=O)[C@H]1CCC13COC(=O)C1=CC=C[C@H]32` (stereo partly drawn) [LL, (4S,7R,9R,10S)-7-(furan-3-yl)-9-methyl-6,16-dioxatetracyclo[8.7.0.01,14.04,9]heptadeca-11,13-diene-5,15-dione], the “biological activity symbol on IC50 BEAS-2B” value in data set [1] is “-”. The IC50 – broadly, the concentration that inhibits the measured activity by half – in data set [1] (Homo sapiens, BEAS-2B) came to 200 µg/mL (≈ 588 µM). In data set [2], the actin cytoskeleton alteration result is on record as “reduction in polymerized actin”. Besides, in data set [3] (ALA characteristics), the Edges entry is “Regular and well defined”; the Leukocyte infiltrate entry was “+/−”; the Liquid result is given as “−”; the Morphology result is “Loculated ovoid”. Besides, the “ALA Volume” value in data set [3] (MRI, i.p. 4 days) is 562.3 ± 23.3 * mm^3. Also, the “MRI T1 signal of ALA” value in data set [3] (T1) is on record as “Intermediate intensity”. Moreover, the “MRI T2 signal of ALA” value in data set [3] (T2) is recorded as “hypointense”. The “ALA Weight” value in data set [3] (i.p. 4 days, KP 5, LL 10, MTZ 10 mg/kg/day) is 0.40 ± 0.20 g. Also, the “change in body weight compared with the control (disease-free) group” value in data set [4] is reported as −0.21%. Besides, in data set [4] (i.p. 4 days), the Hamster weight came to 93.4 ± 7.2 g, the Survival rate amounted to 100% and the Toxicity signs result was “None”.
